Laboratory results from US6331548A, “1-cycloalkyl-1,8-naphthyridin-4-one derivative as type IV phosphodiesterase inhibitor” (Suntory Limited, priority 1998, dated 2001).
Structures can show the parent of a compound that is named as a salt.

What was measured:
[1] = target: type IV phosphodiesterase; experiment: Type IV phosphodiesterase inhibiting activity; type: biochemical, human; settings: U937 type IV phosphodiesterase fraction, 0.28 μM cAMP, pH 7.5, 30° C., 30 minutes; read-out: PDEIV-IC50
In short: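 PDE4 fraction from U937 cell lysate, separated on DEAE Sepharose, incubated with compound, 0.4 μCi 3H-cAMP (0.28 μM cAMP) and 5'-nucleotidase in Tris-HCl pH 7.5 with 1 mM MgCl2 for 30 min at 30 °C. Product radioactivity counted after QAE-Sephadex removal of substrate.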

[2] = system: TNF-α production by LPS stimulated macrophages; experiment: TNF-α production inhibitory activity by LPS stimulated macrophages; type: cell-based; settings: Macrophage, BALB/c mouse peritoneal macrophages, cultured for 8 hours, ELISA
Experimental: The following assay was used to evaluate the ability of the compound of the present invention to suppress TNF-α production by LPS stimulated macrophages according to Immunopharmacol. 29, 121-127 (1995).
1) 6 to 10 week old female BALB/c mice were used, 2 ml portions of thioglycolate were intraperitoneally administered, and the abdominal cavities were washed by 10 ml of PBS after 4 days, whereby 1 to 2×10^7 peritoneal cells were obtained per mouse. These were suspended in a hemocyte solution (0.75% ammonium chloride, 17 mM tris-hydrochlorate buffer, pH7.2), centrifuged, then resuspended in an RPMI1640 medium including 10% fetal calf serum and seeded in a 96-well cell culture plate at a density of 1×10^5 cells/50 μl/well. Since these cells adhered strongly to the tissue culture plate and were positive in nonspecific esterase staining, they were used for the test as mouse peritoneal macrophages. Mouse peritoneal macrophages were precultured overnight at 37° C. in […] for the experiment.
2) E. Coli (serum type 055:B5) derived LPS was dissolved in PBS in a concentration of 1 mg/ml, then sterilized by filtration. The test compound was dissolved in DMSO to make a 1000-fold concentration solution of the final concentration of use. 10 μl of the above LPS stock solution (final concentration 10 μg/ml) and 1 μl of the tested substance stock solution were added and mixed in 0.5 ml of RPMI1640 medium containing 10% fetal calf serum. This was added to the above cells at 50 μl/well and cultured for 8 hours. The cultured supernatant was recovered from each well and the TNF-α concentration was measured by the ELISA method (Cytoscreen® Immunoassay Kit Mouse TNF-α, BioSourse International).
The comparative example was the compound described in WO-A-97-04775, Example 1, mentioned above.

mice = experiment: Toxicity: death on intraperitoneal administration to mice for 5 weeks; type: in vivo; settings: 10 mg/kg per day intraperitoneally for 5 weeks
Excerpt: Further, the compounds of the present invention are low in toxicity, and these compounds are expected to be high in safety.

SMILES	IC50 [1] [nM]	IC50 [2] [nM]	death (mice)
O=C(Nc1ccncc1)c1cn(C2CC2)c2ncccc2c1=O [Example 139, N-(4-pyridyl)-1-cyclopropyl-1,4-dihydro[1,8]naphthylidin-4-one-3-carboxamide]	240	370	no death
CO[C@H]1CC[C@H](n2cc(C(=O)Nc3c(Cl)cncc3Cl)c(=O)c3cccnc32)CC1 [Example 127, N-(3,5-dichloropyridin-4-yl)-1-(trans-4-methoxycyclohexyl)-1,4-dihydro[1,8]naphthylidin-4-one-3-carboxamide]	7.2	15	no death
O=C(Nc1ccncc1)c1cn(N2CCOCC2)c2ncccc2c1=O [Example 106, N-(4-pyridyl)-1-(1-morpholino)-1,4-dihydro[1,8]naphthylidin-4-one-3-carboxamide]	140	90	no death
COC(=O)N1CC(n2cc(C(=O)Nc3c(Cl)cncc3Cl)c(=O)c3cccnc32)C1 [Example 34, N-(3,5-dichloropyridin-4-yl)-1-(1-methoxycarbonylazetidin-3-yl)-1,4-dihydro[1,8]naphthylidin-4-one-3-carboxamide]	24	80	no death
O=C(Nc1c(Cl)cncc1Cl)c1cn(C2CCNCC2)c2ncccc2c1=O [Example 47, N-(3,5-dichloropyridin-4-yl)-1-(4-piperidyl)-1,4-dihydro[1,8]naphthylidin-4-one-3-carboxamide hydrochloride]	40	800	–
CN1CCN(n2cc(C(=O)Nc3c(Cl)cncc3Cl)c(=O)c3cccnc32)CC1 [Example 55, N-(3,5-dichloropyridin-4-yl)-1-(4-methylpiperazine-1-yl)-1,4-dihydro[1,8]naphthylidin-4-one-3-carboxamide]	6.7	10	–
O=C1CCC(n2cc(C(=O)Nc3ccncc3Cl)c(=O)c3cccnc32)CC1 [Example 123, N-(3-chloropyridin-4-yl)-1-(4-oxocyclohexyl)-1,4-dihydro[1,8]naphthylidin-4-one-3-carboxamide]	390	1200	–
O=C(Nc1c(Cl)cncc1Cl)c1cn(C2CC[S+]([O-])CC2)c2ncccc2c1=O (stereo not drawn) [Example 102 (Sulfoxide), N-(3,5-dichloropyridin-4-yl)-1-(1-oxotetrahydrothiopyran-4-yl)-1,4-dihydro[1,8]naphthylidin-4-one-3-carboxamide]	5.1	70	–
O=C(Nc1c(Cl)cncc1Cl)c1cn(C2CCN(C(=O)OCc3ccccc3)CC2)c2ncccc2c1=O [Example 25, N-(3,5-dichloropyridin-4-yl)-1-(1-benzyloxycarbonylpiperidin-4-yl)-1,4-dihydro[1,8]naphthylidin-4-one-3-carboxamide]	0.9	0.4	no death
O=C(Nc1c(Cl)cncc1Cl)c1cn([C@H]2CC[C@H](O)CC2)c2ncccc2c1=O [Example 117, N-(3,5-dichloropyridin-4-yl)-1-(trans-4-hydroxycyclohexyl)-1,4-dihydro[1,8]naphthylidin-4-one-3-carboxamide]	3.7	2	no death
CCNC(=O)N1CCC(n2cc(C(=O)Nc3c(Cl)cncc3Cl)c(=O)c3cccnc32)CC1 [Example 27, N-(3,5-dichloropyridin-4-yl)-1-(1-ethylaminocarbonylpiperidin-4-yl)-1,4-dihydro[1,8]naphthylidin-4-one-3-carboxamide]	1.3	10	–
O=C1CCC(n2cc(C(=O)Nc3c(Cl)cncc3Cl)c(=O)c3cccnc32)CC1 [Example 120, N-(3,5-dichloropyridin-4-yl)-1-(4-oxocyclohexyl)-1,4-dihydro[1,8]naphthylidin-4-one-3-carboxamide]	2.7	0.7	no death
COC(=O)N1CCN(n2cc(C(=O)Nc3c(Cl)cncc3Cl)c(=O)c3cccnc32)CC1 [Example 56, N-(3,5-dichloropyridin-4-yl)-1-(4-methoxycarbonylpiperazin-1-yl)-1,4-dihydro[1,8]naphthylidin-4-one-3-carboxamide]	1.6	15	no death
COC(=O)N1CCC(n2cc(C(=O)Nc3c(Cl)cncc3Cl)c(=O)c3cccnc32)CC1 [Example 26, N-(3,5-dichloropyridin-4-yl)-1-(1-methoxycarbonylpiperidin-4-yl)-1,4-dihydro[1,8]naphthylidin-4-one-3-carboxamide]	0.9	0.2	no death
COC(=O)N1CC[C@H](n2cc(C(=O)Nc3c(Cl)cncc3Cl)c(=O)c3cccnc32)C1 [Example 11, (S)-N-(3,5-dichloropyridin-4-yl)-1-(1-methoxycarbonylpyrrolidin-3-yl)-1,4-dihydro[1,8]naphthyridin-4-one-3-carboxamide]	1.7	4	no death
O=C(Nc1c(Cl)cncc1Cl)c1cn(C2CCSCC2)c2ncccc2c1=O [Example 101, N-(3,5-dichloropyridin-4-yl)-1-(4-tetrahydrothiopyranyl)-1,4-dihydro[1,8]naphthylidin-4-one-3-carboxamide]	0.4	3	–
O=C(Nc1c(Cl)cncc1Cl)c1cn([C@H]2CCN(C(=O)OCc3ccccc3)C2)c2ncccc2c1=O [Example 10, (S)-N-(3,5-dichloropyridin-4-yl)-1-(1-benzyloxycarbonylpyrrolidin-3-yl)-1,4-dihydro[1,8]naphthyridin-4-one-3-carboxamide]	1.5	10	no death
O=C(Nc1c(Cl)cncc1Cl)c1cn(C2CC2)c2ncccc2c1=O [Example 140, N-(3,5-dichloropyridin-4-yl)-1-cyclopropyl-1,4-dihydro[1,8]naphthylidin-4-one-3-carboxamide]	2.5	10	–
NC(=O)N1CC[C@H](n2cc(C(=O)Nc3c(Cl)cncc3Cl)c(=O)c3cccnc32)C1 [Example 20, (S)-N-(3,5-dichloropyridin-4-yl)-1-(1-aminocarbonylpyrrolidin-3-yl)-1,4-dihydro[1,8]naphthylidin-4-one-3-carboxamide]	12	3000	–
O=C(Nc1c(Cl)cncc1Cl)c1cn(C2CCN(Cc3ccccc3)CC2)c2ncccc2c1=O [Example 46, N-(3,5-dichloropyridin-4-yl)-1-(benzylpiperidin-4-yl)-1,4-dihydro[1,8]naphthylidin-4-one-3-carboxamide]	13	500	–
